The NIST ThermoML archive (doi:10.1021/acs.jced.7b00265)

Assay: molar heat capacity at constant pressure; mn = molality of the nth substance listed, in mol/kg
Details: 100 kPa, Liquid, DSC

O=S(=O)([O-])[O-].[K+].[K+] [potassium sulfate] + O
molar heat capacity at constant pressure [J/K/mol]
Details | 253.15 K | 258.15 K | 263.15 K | 268.15 K | 273.15 K | 278.15 K | 283.15 K | 288.15 K | 293.15 K | 298.15 K
m1 = 0.1142 | – | – | 75.36 | 75.07 | 74.96 | 74.83 | 74.81 | 74.85 | 74.83 | 74.77
m1 = 0.201 | – | – | 74.67 | 74.5 | 74.48 | 74.33 | 74.39 | 74.45 | 74.46 | 74.43
m1 = 0.296 | – | – | 73.96 | 73.87 | 73.91 | 73.89 | 73.98 | 74.02 | 74.15 | 74.11
m1 = 0.415 | 73.75 | 73.5 | 73.32 | 73.32 | 73.42 | 73.4 | 73.55 | 73.65 | 73.77 | 73.77
m1 = 0.515 | – | 73.06 | 72.94 | 72.98 | 73.12 | 73.16 | 73.33 | 73.41 | 73.53 | 73.53
m1 = 0.606 | – | – | 72.64 | 72.74 | 72.9 | 72.92 | 73.14 | 73.21 | 73.33 | 73.33

O=S(=O)([O-])[O-].[Mg+2] [magnesium sulfate] + O
molar heat capacity at constant pressure [J/K/mol]
Details | m1 = 0.0546 | m1 = 0.1089 | m1 = 0.213 | m1 = 0.526 | m1 = 1.001 | m1 = 1.502 | m1 = 2.012 | m1 = 2.495 | m1 = 2.775
248.15 K | – | – | – | – | – | – | 67.27 | 67.05 | 67.13
253.15 K | – | – | – | – | – | 68.74 | 67.94 | 67.75 | 67.86
258.15 K | – | – | – | 72.91 | – | 69.24 | 68.52 | 68.37 | 68.51
263.15 K | 76.21 | – | – | 72.94 | 70.95 | 69.74 | 69.11 | 68.98 | 69.12
268.15 K | 75.8 | 75.41 | 74.68 | 73 | 71.26 | 70.17 | 69.62 | 69.54 | 69.7
273.15 K | 75.56 | 75.23 | 74.58 | 73.08 | 71.54 | 70.59 | 70.1 | 70.03 | 70.24
278.15 K | 75.36 | 75.07 | 74.49 | 73.15 | 71.78 | 70.94 | 70.49 | 70.46 | 70.7
283.15 K | 75.24 | 74.96 | 74.44 | 73.23 | 71.98 | 71.23 | 70.88 | 70.89 | 71.11
288.15 K | 75.16 | 74.9 | 74.44 | 73.34 | 72.23 | 71.56 | 71.27 | 71.27 | 71.57
293.15 K | 75.09 | 74.85 | 74.42 | 73.44 | 72.41 | 71.83 | 71.57 | 71.63 | 71.94
298.15 K | 75.05 | 74.83 | 74.44 | 73.55 | 72.65 | 72.12 | 71.91 | 72.01 | 72.35

O=S(=O)([O-])[O-].[Na+].[Na+] [sodium sulfate] + O
molar heat capacity at constant pressure [J/K/mol]
Details | 253.15 K | 258.15 K | 263.15 K | 268.15 K | 273.15 K | 278.15 K | 283.15 K | 288.15 K | 293.15 K | 298.15 K
m1 = 0.1012 | – | 76.36 | 75.81 | 75.43 | 75.23 | 75.08 | 74.99 | 74.95 | 74.93 | 74.97
m1 = 0.253 | – | 75.13 | 74.91 | 74.72 | 74.63 | 74.57 | 74.55 | 74.57 | 74.57 | 74.63
m1 = 0.501 | – | 74.17 | 74.13 | 74.09 | 74.11 | 74.15 | 74.2 | 74.28 | 74.32 | 74.4
m1 = 0.748 | 73.94 | 73.9 | 73.96 | 74.02 | 74.08 | 74.13 | 74.23 | 74.33 | 74.39 | 74.47
m1 = 1 | 73.97 | 74.01 | 74.15 | 74.21 | 74.31 | 74.39 | 74.49 | 74.62 | 74.68 | 74.76
m1 = 1.33 | 74.4 | 74.53 | 74.72 | 74.84 | 74.95 | 75.03 | 75.11 | 75.22 | 75.28 | 75.37
m1 = 1.517 | – | 74.71 | 74.81 | 75.03 | 75.22 | 75.33 | 75.52 | 75.65 | 75.77 | 75.8
m1 = 2.084 | – | – | – | – | – | – | 77.16 | 77.32 | 77.39 | 77.32
